Reference: US10526347B2, “3-(3H-imidazo[4,5-B]pyridin-2-yl)-1H-pyrazolo[3,4-B]pyridine and therapeutic uses thereof” (Samumed, LLC, priority 2014, dated 2020)

Key:
Format in all cases: cell-based
[1] = system: Wnt activity (SW480 colon carcinoma cells stably expressing the Sp5-Luc reporter gene); assay: Sp5-Luc reporter gene screening assay for Wnt activity; details: Homo sapiens
Summary of the method: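 The SW480 cells carry a lentiviral luciferase reporter driven by a Sp5 promoter with eight TCF/LEF sites. They were plated at 10,000 cells/well in 10% FCS overnight, then pinned with 50 nl of 3-fold dilutions (10 mM top source concentration) into 50 μl.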

[2] = system: primary human fibroblasts derived from IPF patients (LL29 cells); assay: Inhibition of the fibrotic process in TGF-β1 treated IPF patient fibroblasts (αSMA staining); details: Fibroblast, 96 h, LL29 cells treated with TGF-β1 (20 ng/mL), 4 days, read-out: Inhibition of fibrosis EC50
Summary of the method: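 LL29 IPF lung fibroblasts in F12 with 1% FBS, compound (11-point, 10 μM to 1.87 nM, 0.1% DMSO) plus TGF-β1 20 ng/mL for 4 days at 37° C. αSMA-positive % of SYTOX-negative cells by immunofluorescence imaging, normalized to TGF-β1 wells; EC50 from non-linear regression of triplicates.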

[3] = system: primary human mesenchymal stem cells (hMSCs); assay: Chondrogenesis induction in primary human mesenchymal stem cells (chondrogenic nodules, Rhodamine B / Nile Red); details: 6 days; for Max. Activity as % TGF-β3 activity: positive control TGF-β3 10 ng/mL, nodule number normalized to DMSO; for EC (100% of TGF-beta3 activity): Homo sapiens, Mesenchymal stem cells, 144 h, concentration required to induce chondrogenesis equivalent to TGF-β3 10 ng/mL, read-out: Conc (nM) of 100% TGF-β3 activity
Procedure: The above synthesized compounds were screened using primary human mesenchymal stem cells (hMSCs) to determine their ability to induce chondrogenesis (process by which cartilage is developed).
Primary human mesenchymal stem cells (hMSCs) were purchased from Lonza (Walkersville, Md.) and expanded in Mesenchymal Stem Cell Growth Media (Lonza). Cells between passage 3 and 6 were used for the experiments.
Each compound was dissolved in DMSO as a 10 mM stock and used to prepare compound source plates. Serial dilution (1:3, 6-point dose-response curves from 2700 nM to 10 nM) and compound transfer was performed using the ECHO 550 (Labcyte, Sunnyvale, Calif.) into 96-well clear bottom assay plates (Greiner Bio-One) with appropriate DMSO backfill for a final DMSO concentration of 0.03%. hMSCs were plated at 20,000 cells/well in 250 μL/well Incomplete Chondrogenic Induction Medium (Lonza; DMEM, dexamethasone, ascorbate, insulin-transferrin-selenium [ITS supplement], gentamycin-amphotericin [GA-1000], sodium pyruvate, proline and L-glutamine). TGF-β3 (10 ng/mL) was used as a positive control for differentiation while negative control wells were treated with 75 nL DMSO for normalization and calculating EC50 values. Cells were incubated at 37° C. and 5% CO2 for 6 days. To image chondrogenic nodules, the cells were fixed using 4% formaldehyde (Electron Microscopy Sciences), and stained with 2 μg/mL Rhodamine B (Sigma-Aldrich) and 20 μM Nile Red (Sigma-Aldrich) [Johnson K., et. al, A Stem Cell-Based Approach to Cartilage Repair, Science, (2012), 336(6082). 717-721]. The nodules imaged (4 images per well at 4× magnification) by excitation at 531 nm and emission at 625 nm and quantified using the CellInsight CX5 (Thermo Scientific). Number of nodules in each well was normalized to the average of 3 DMSO treated wells on the same plate using Excel (Microsoft Inc.). The normalized averages (fold change over DMSO) of 3 replicate wells for each compound concentration were calculated. Due to solubility limitations of some of the compounds, curve fitting was incomplete leading to inaccurate EC50 determinations.
Using TGF-β3 as a positive control, the concentration of test compounds required to induce equivalent levels of chondrogenesis is reported. In addition, the maximum activity of each compound and the respective dose that each compound reached maximum chondrogenesis activity is reported.

IC50 [1]	SMILES	EC50 [2]	Max. Activity as % TGF-β3 activity [3]	EC (100% of TGF-beta3 activity) [3]
66 nM	Cc1ncc(-c2cnc3[nH]nc(-c4nc5c(-c6cccc(F)c6)ccnc5[nH]4)c3c2)n1C [Compound 913, 5-(1,2-Dimethyl-1H-imidazol-5-yl)-3-(7-(3-fluorophenyl)-3H-imidazo[4,5-b]pyridin-2-yl)-1H-pyrazolo[3,4-b]pyridine]	216 nM	300%	117 nM
3.7 nM	Nc1cncc(-c2cnc3[nH]nc(-c4nc5c(-c6ccccc6F)ccnc5[nH]4)c3c2)c1 [Compound 45, 5-(3-(7-(2-Fluorophenyl)-3H-imidazo[4,5-b]pyridin-2-yl)-1H-pyrazolo [3,4-b]pyridin-5-yl)pyridin-3-amine]	≤ 9 nM	300%	59.9 nM
21.7 nM	CCCCC(=O)Nc1cncc(-c2cnc3[nH]nc(-c4nc5c(-c6cc(F)cc(NCCN(C)C)c6)ccnc5[nH]4)c3c2)c1 [Compound 432, N-(5-(3-(7-(3-((2-(Dimethylamino)ethyl)amino)-5-fluorphenyl)-3H-imidazo[4,5-b]pyridin-2-yl)-1H-pyrazolo[3,4-b]pyridin-5-yl)pyridin-3-yl)pentanamide]			57 nM
45.4 nM	CC(C)Nc1cncc(-c2cnc3[nH]nc(-c4nc5c(-c6cccnc6)ccnc5[nH]4)c3c2)c1 [Compound 75, N-Isopropyl-5-(3-(7-(pyridin-3-yl)-3H-imidazo[4,5-b]pyridin-2-yl)-1H-pyrazolo[3,4-b]pyridin-5-yl)pyridin-3-amine]			58.5 nM
8.3 nM	Cc1cn(-c2ccnc3[nH]c(-c4n[nH]c5ncc(-c6cncc(NC(=O)CC(C)C)c6)cc45)nc23)cn1 [Compound 160, 3-Methyl-N-(5-(3-(7-(4-methyl-1H-imidazol-1-yl)-3H-imidazo[4,5-b]pyridin-2-yl)-1H-pyrazolo[3,4-b]pyridin-5-yl)pyridin-3-yl)butanamide]			26.8 nM
3.3 nM	CCC(=O)Nc1cncc(-c2cnc3[nH]nc(-c4nc5c(-c6cccs6)ccnc5[nH]4)c3c2)c1 [Compound 285, N-(5-(3-(7-(Thiophen-2-yl)-3H-imidazo[4,5-b]pyridin-2-yl)-1H-pyrazolo[3,4-b]pyridin-5-yl)pyridin-3-yl)propionamide]	≤ 9 nM		48.9 nM
20.6 nM	Cc1ccncc1-c1cnc2[nH]nc(-c3nc4c(-c5cc(F)cc(CNS(C)(=O)=O)c5)ccnc4[nH]3)c2c1 [Compound 393, N-(3-Fluoro-5-(2-(5-(4-methylpyridin-3-yl)-1H-pyrazolo[3,4-b]pyridin-3-yl)-3H-imidazo[4,5-b]pyridin-7-yl)benzyl)methanesulfonamide]	674 nM	100%	140 nM
2.6 nM	Cc1ccc(-c2ccnc3[nH]c(-c4n[nH]c5ncc(-c6cncc(N)c6)cc45)nc23)s1 [Compound 339, 5-(3-(7-(5-Methylthiophen-2-yl)-3H-imidazo[4,5-b]pyridin-2-yl)-1H-pyrazolo[3,4-b]pyridin-5-yl)pyridin-3-amine]	40 nM		43.2 nM
33 nM	O=C(Nc1cncc(-c2cnc3[nH]nc(-c4nc5c(-c6ccsc6)ccnc5[nH]4)c3c2)c1)c1ccccc1 [Compound 243, N-(5-(3-(7-(Thiophen-3-yl)-3H-imidazo[4,5-b]pyridin-2-yl)-1H-pyrazolo[3,4-b]pyridin-5-yl)pyridin-3-yl)benzamide]	113 nM		
751 nM	O=C(Cc1ccccc1)Nc1cncc(-c2cnc3[nH]nc(-c4nc5cccnc5[nH]4)c3c2)c1 [Compound 216, N-(5-(3-(3H-Imidazo[4,5-b]pyridin-2-yl)-1H-pyrazolo[3,4-b]pyridin-5-yl)pyridin-3-yl)-2-phenylacetamide]	≥ 9990 nM		
> 10000 nM	O=C(Nc1cncc(-c2cnc3[nH]nc(-c4nc5c(-c6ccncc6)ccnc5[nH]4)c3c2)c1)C1CCCCC1 [Compound 106, N-(5-(3-(7-(Pyridin-4-yl)-3H-imidazo[4,5-b]pyridin-2-yl)-1H-pyrazolo[3,4-b]pyridin-5-yl)pyridin-3-yl)cyclohexanecarboxamide]	≥ 9990 nM		
> 10000 nM	Fc1cccc(-c2ccnc3[nH]c(-c4n[nH]c5ncc(C6CCNCC6)cc45)nc23)c1 [Compound 909, 3-(7-(3-Fluorophenyl)-3H-imidazo[4,5-b]pyridin-2-yl)-5-(piperidin-4-yl)-1H-pyrazolo[3,4-b]pyridine]	≥ 9990 nM		
3990 nM	CN(C)CC(=O)Nc1cncc(-c2cnc3[nH]nc(-c4nc5c(-c6cccc(F)c6)ccnc5[nH]4)c3c2)c1 [Compound 1409, 2-(Dimethylamino)-N-(5-(3-(7-(3-fluorophenyl)-3H-imidazo[4,5-b]pyridin-2-yl)-1H-pyrazolo[3,4-b]pyridin-5-yl)pyridin-3-yl)acetamide]	≤ 9 nM		
44.3 nM	CC(C)Nc1cncc(-c2cnc3[nH]nc(-c4nc5c(-c6ccoc6)ccnc5[nH]4)c3c2)c1 [Compound 270, 5-(3-(7-(Furan-3-yl)-3H-imidazo[4,5-b]pyridin-2-yl)-1H-pyrazolo[3,4-b]pyridin-5-yl)-N-isopropylpyridin-3-amine]	786 nM		
2800 nM	CN(C)Cc1cncc(-c2cnc3[nH]nc(-c4nc5c(N6CCCCC6)ccnc5[nH]4)c3c2)c1 [Compound 145, N,N-Dimethyl-1-(5-(3-(7-(piperidin-1-yl)-3H-imidazo[4,5-b]pyridin-2-yl)-1H-pyrazolo[3,4-b]pyridin-5-yl)pyridin-3-yl)methanamine]	1440 nM		
> 10000 nM	Cc1ccncc1-c1cnc2[nH]nc(-c3nc4c(-c5ccncc5)ccnc4[nH]3)c2c1 [Compound 91, 5-(4-Methylpyridin-3-yl)-3-(7-(pyridin-4-yl)-3H-imidazo[4,5-b]pyridin-2-yl)-1H-pyrazolo[3,4-b]pyridine]	≥ 9990 nM		
27 nM	CC(C)CC(=O)Nc1cncc(-c2cnc3[nH]nc(-c4nc5c(-c6ccc(F)s6)ccnc5[nH]4)c3c2)c1 [Compound 312, N-(5-(3-(7-(5-Fluorothiophen-2-yl)-3H-imidazo[4,5-b]pyridin-2-yl)-1H-pyrazolo[3,4-b]pyridin-5-yl)pyridin-3-yl)-3-methylbutanamide]	189 nM		
> 10000 nM	Fc1cccc(-c2ccnc3[nH]c(-c4n[nH]c5ncc(-c6cnccn6)cc45)nc23)c1 [Compound 926, 3-(7-(3-Fluorophenyl)-3H-imidazo[4,5-b]pyridin-2-yl)-5-(pyrazin-2-yl)-1H-pyrazolo[3,4-b]pyridine]	13 nM		
> 10000 nM	CC(=O)c1ccc(-c2ccnc3[nH]c(-c4n[nH]c5ncc(-c6cncc(NC(=O)C7CCCCC7)c6)cc45)nc23)s1 [Compound 384, N-(5-(3-(7-(5-Acetylthiophen-2-yl)-3H-imidazo[4,5-b]pyridin-2-yl)-1H-pyrazolo[3,4-b]pyridin-5-yl)pyridin-3-yl)cyclohexanecarboxamide]	≥ 9990 nM		
> 10000 nM	CN1CCN(c2ccnc3[nH]c(-c4n[nH]c5ncc(-c6cncc(CN7CCCCC7)c6)cc45)nc23)CC1 [Compound 198, 3-(7-(4-Methylpiperazin-1-yl)-3H-imidazo[4,5-b]pyridin-2-yl)-5-(5-(piperidin-1-ylmethyl)pyridin-3-yl)-1H-pyrazolo[3,4-b]pyridine]	3040 nM		
> 10000 nM	c1cc(-c2ccoc2)c2nc(-c3n[nH]c4ncc(-c5cncc(CNCC6CCCC6)c5)cc34)[nH]c2n1 [Compound 282, 1-Cyclopentyl-N-((5-(3-(7-(furan-3-yl)-3H-imidazo[4,5-b]pyridin-2-yl)-1H-pyrazolo[3,4-b]pyridin-5-yl)pyridin-3-yl)methyl)methanamine]	≥ 9990 nM		
